{"source": "ChEMBL document CHEMBL4396888", "about": "“Design and Synthesis of Potent, Selective Inhibitors of Protein Arginine Methyltransferase 4 against Acute Myeloid Leukemia” (J Med Chem, 2019)", "key": {"MV4-11": {"tested_on": "MV4-11", "experiment": "Antiproliferative activity against human MV4-11 cells measured after 6 days by CCK8/SRB assay", "assay_type": "functional, cell-based"}, "[1]": {"experiment": "Half life in ICR mouse at 10 mg/kg, po administered via gavage by mass spectrometric analysis", "assay_type": "ADME, organism-based", "conditions": "in vivo"}, "[2]": {"experiment": "Selectivity ratio of IC50 for antiproliferative activity against human MOLM13 cells to IC50 for inhibition of PRMT4 in human MOLM13 cells assessed as reduction in PABP1 dimethylation"}, "HEL": {"tested_on": "HEL", "experiment": "Antiproliferative activity against HEL cells measured after 6 days by CCK8/SRB assay", "assay_type": "functional, cell-based", "conditions": "Homo sapiens"}, "MOLM-13 [3]": {"tested_on": "MOLM-13", "experiment": "Induction of apoptosis in human MOLM13 cells measured after 96 hrs by Annexin V-FITC/propidium iodide staining-based flow cytometry", "assay_type": "functional, cell-based"}, "[4]": {"target": "Protein arginine N-methyltransferase 1 (Homo sapiens, UniProt Q99873)", "experiment": "Inhibition of PRMT1 (unknown origin) preincubated for 15 mins followed by substrate addition and measured after 60 mins by AlphaLisa assay"}, "[5]": {"experiment": "Protein binding in mouse plasma at 2 uM", "assay_type": "ADME, cell-free", "conditions": "read-out: PPB (converted)"}, "[6]": {"target": "Histone-lysine N-methyltransferase NSD2 (Homo sapiens) (UniProt O96028)", "sequence (O96028 whole entry)": "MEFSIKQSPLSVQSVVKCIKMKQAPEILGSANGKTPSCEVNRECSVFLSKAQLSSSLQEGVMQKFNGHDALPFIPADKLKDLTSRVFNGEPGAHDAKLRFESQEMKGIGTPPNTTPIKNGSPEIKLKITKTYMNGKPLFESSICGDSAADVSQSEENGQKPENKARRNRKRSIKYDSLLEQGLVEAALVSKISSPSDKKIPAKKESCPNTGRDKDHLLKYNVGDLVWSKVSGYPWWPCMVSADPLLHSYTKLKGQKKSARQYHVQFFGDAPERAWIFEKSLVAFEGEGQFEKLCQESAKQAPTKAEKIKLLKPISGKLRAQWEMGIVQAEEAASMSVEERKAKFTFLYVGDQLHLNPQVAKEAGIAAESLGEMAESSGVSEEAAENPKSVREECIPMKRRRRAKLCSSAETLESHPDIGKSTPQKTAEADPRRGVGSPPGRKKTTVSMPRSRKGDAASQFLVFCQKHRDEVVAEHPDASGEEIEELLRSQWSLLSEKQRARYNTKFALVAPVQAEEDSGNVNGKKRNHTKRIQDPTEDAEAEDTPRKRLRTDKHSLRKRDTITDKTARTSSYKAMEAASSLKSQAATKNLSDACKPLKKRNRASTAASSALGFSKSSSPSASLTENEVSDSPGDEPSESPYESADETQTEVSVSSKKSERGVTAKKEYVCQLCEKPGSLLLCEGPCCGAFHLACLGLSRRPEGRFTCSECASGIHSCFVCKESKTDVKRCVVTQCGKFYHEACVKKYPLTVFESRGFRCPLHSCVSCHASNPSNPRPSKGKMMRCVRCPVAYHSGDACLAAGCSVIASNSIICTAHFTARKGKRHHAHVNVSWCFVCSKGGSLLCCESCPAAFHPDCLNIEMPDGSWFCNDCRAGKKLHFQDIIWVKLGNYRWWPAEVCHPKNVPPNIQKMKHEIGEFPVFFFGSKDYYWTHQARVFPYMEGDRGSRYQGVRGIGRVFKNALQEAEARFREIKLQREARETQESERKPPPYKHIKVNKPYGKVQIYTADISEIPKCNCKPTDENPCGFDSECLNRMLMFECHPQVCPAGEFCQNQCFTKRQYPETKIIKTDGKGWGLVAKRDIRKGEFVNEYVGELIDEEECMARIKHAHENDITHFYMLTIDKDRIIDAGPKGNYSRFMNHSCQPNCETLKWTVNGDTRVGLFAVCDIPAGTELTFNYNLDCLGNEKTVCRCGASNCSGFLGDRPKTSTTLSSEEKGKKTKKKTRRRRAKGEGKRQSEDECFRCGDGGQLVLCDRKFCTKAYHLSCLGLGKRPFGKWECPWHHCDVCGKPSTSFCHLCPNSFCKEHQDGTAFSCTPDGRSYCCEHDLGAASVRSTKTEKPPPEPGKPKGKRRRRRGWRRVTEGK", "experiment": "Inhibition of NSD2 (unknown origin) up to 50 uM preincubated for 15 mins followed by substrate addition and measured after 60 mins by AlphaLisa assay"}, "[7]": {"target": "Histone-lysine N-methyltransferase EHMT2 (Homo sapiens) (UniProt Q96KQ7)", "experiment": "Inhibition of G9a (unknown origin) up to 50 uM preincubated for 15 mins followed by substrate addition and measured after 60 mins by AlphaLisa assay"}, "[8]": {"experiment": "Cmax in ICR mouse at 10 mg/kg, po administered via gavage by mass spectrometric analysis", "assay_type": "ADME, organism-based", "set-up": "dose 10 mg/kg, route oral", "conditions": "in vivo"}, "[9]": {"experiment": "Half life in ICR mouse at 3 mg/kg, iv by mass spectrometric analysis", "assay_type": "ADME, organism-based", "conditions": "in vivo"}, "[10]": {"experiment": "AUC (0 to last) in ICR mouse at 10 mg/kg, po administered via gavage by mass spectrometric analysis", "assay_type": "ADME, organism-based", "set-up": "dose 10 mg/kg, route oral, time 0 - last", "conditions": "in vivo"}, "[11]": {"experiment": "AUC (0 to infinity) in ICR mouse at 10 mg/kg, po administered via gavage by mass spectrometric analysis", "assay_type": "ADME, organism-based", "set-up": "dose 10 mg/kg, time infinity, route oral", "conditions": "in vivo"}, "MOLM-13 [12]": {"tested_on": "MOLM-13", "experiment": "Antiproliferative activity against human MOLM13 cells measured after 6 days by CCK8/SRB assay", "conditions": "MOLM-13, 144 h"}, "MONO-MAC-6": {"tested_on": "MONO-MAC-6", "experiment": "Antiproliferative activity against human MONO-MAC-6 cells measured after 6 days by CCK8/SRB assay", "assay_type": "functional, cell-based"}, "[13]": {"target": "T1, Histone-arginine methyltransferase CARM1 (Homo sapiens, UniProt Q86X55)", "T1 sequence (Q86X55 whole entry)": "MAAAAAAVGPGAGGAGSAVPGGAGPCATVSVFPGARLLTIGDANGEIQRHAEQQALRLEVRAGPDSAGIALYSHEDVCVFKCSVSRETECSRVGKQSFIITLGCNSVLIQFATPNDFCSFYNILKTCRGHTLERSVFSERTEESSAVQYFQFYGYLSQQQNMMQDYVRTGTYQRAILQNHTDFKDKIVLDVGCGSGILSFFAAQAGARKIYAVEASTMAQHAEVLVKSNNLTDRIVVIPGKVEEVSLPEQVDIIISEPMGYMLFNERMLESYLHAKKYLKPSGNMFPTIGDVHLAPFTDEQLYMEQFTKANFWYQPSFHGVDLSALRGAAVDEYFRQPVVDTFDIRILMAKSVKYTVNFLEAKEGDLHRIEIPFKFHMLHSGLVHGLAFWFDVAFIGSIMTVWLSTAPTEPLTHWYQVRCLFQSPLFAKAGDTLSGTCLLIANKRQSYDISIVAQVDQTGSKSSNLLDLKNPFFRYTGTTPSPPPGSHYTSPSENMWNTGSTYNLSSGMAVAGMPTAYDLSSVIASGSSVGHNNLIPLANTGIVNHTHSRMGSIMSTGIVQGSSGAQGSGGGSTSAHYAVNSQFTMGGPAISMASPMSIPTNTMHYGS", "experiment": "Inhibition of PRMT4 in human MOLM13 cells assessed as reduction in BAF155 dimethylation measured after 96 hrs by Western blotting analysis", "assay_type": "cell-based"}, "K562": {"tested_on": "K562", "experiment": "Antiproliferative activity against human K562 cells measured after 6 days by CCK8/SRB assay", "assay_type": "functional, cell-based"}, "[14]": {"target": "Histone-lysine N-methyltransferase, H3 lysine-79 specific (Homo sapiens) (UniProt Q8TEK3)", "sequence (Q8TEK3 whole entry, looked up)": "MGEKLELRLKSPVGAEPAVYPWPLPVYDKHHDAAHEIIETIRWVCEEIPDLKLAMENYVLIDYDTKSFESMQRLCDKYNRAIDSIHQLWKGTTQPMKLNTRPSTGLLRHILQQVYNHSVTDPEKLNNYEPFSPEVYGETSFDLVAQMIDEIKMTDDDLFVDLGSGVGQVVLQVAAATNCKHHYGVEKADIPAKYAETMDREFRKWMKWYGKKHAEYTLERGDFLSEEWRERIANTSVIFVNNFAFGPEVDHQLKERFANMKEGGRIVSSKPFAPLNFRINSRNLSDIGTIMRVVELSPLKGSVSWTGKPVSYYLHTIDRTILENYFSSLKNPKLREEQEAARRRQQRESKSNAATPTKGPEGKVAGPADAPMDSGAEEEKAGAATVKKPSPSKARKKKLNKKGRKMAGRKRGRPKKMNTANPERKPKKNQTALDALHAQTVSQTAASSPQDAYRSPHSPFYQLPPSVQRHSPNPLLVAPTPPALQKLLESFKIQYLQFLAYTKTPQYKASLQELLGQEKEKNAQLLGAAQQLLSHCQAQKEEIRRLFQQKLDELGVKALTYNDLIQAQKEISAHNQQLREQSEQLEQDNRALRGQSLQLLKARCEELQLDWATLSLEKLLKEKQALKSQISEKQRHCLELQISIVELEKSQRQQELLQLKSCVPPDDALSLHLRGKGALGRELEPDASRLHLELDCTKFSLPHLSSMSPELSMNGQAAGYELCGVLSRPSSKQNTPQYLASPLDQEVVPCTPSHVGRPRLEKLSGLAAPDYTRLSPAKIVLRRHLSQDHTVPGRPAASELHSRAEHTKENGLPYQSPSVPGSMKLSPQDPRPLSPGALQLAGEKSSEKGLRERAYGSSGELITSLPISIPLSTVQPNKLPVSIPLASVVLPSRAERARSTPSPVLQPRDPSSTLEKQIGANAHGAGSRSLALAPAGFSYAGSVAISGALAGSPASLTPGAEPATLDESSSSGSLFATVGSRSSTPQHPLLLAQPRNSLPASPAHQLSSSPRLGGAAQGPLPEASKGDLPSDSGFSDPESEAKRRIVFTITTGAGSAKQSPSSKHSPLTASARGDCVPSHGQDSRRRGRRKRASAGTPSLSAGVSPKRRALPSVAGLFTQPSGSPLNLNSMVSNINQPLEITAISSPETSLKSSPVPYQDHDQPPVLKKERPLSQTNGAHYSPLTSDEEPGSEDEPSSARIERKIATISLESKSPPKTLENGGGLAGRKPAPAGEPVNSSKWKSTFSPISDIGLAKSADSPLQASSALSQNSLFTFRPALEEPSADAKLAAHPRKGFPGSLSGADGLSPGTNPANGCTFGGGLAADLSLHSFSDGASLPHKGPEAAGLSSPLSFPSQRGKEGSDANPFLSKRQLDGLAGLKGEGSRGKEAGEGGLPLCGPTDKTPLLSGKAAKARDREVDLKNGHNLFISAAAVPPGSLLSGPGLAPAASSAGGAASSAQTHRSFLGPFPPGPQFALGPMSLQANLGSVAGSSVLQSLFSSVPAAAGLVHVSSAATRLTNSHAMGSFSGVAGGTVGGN", "experiment": "Inhibition of DOT1L (unknown origin) up to 50 uM preincubated for 15 mins followed by substrate addition and measured after 60 mins by AlphaLisa assay"}, "[15]": {"target": "Histone-lysine N-methyltransferase SMYD3 (Homo sapiens) (UniProt Q9H7B4)", "sequence (Q9H7B4 whole entry)": "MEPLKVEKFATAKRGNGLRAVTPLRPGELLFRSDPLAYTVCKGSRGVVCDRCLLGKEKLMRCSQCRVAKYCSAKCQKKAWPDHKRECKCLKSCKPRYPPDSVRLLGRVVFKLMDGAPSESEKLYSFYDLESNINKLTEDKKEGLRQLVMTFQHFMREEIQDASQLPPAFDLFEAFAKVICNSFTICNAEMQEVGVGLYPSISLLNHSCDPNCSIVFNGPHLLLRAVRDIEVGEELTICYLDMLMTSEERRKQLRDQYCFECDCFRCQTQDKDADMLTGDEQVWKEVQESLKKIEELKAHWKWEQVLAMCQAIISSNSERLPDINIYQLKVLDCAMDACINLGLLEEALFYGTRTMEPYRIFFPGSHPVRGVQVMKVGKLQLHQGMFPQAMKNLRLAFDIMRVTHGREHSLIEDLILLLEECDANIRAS", "experiment": "Inhibition of SMYD3 (unknown origin) up to 50 uM preincubated for 15 mins followed by substrate addition and measured after 60 mins by AlphaLisa assay"}, "[16]": {"experiment": "Ratio of drug level in tumor of nude BALB/c mouse xenografted with human MOLM13 cells to IC50 for antiproliferative activity against human MOLM13 cells", "assay_type": "cell-based"}, "[17]": {"experiment": "Drug level in tumor of nude BALB/c mouse xenografted with human MOLM13 cells at 100 mg/kg, po administered daily for 18 days measured 6 hrs post-last dose by LC-MS/MS analysis", "assay_type": "ADME, organism-based, Neoplasm", "conditions": "read-out: Drug uptake"}, "MOLM-13 [18]": {"tested_on": "MOLM-13", "experiment": "Antitumor activity against human MOLM13 cells xenografted in BALB/c nude mouse assessed as tumor growth inhibition at 100 mg/kg, po administered daily for 18 days measured 2 to 3 times a week by caliper method relative to control", "assay_type": "functional", "conditions": "MOLM-13, po, 432 h, read-out: TGI"}, "[19]": {"target": "T1, Histone-arginine methyltransferase CARM1", "experiment": "Inhibition of PRMT4 (unknown origin) using histone H3 (21 to 44 residues) as substrate measured after 60 mins in presence of SAM by AlphaLisa assay"}, "[20]": {"target": "Protein arginine N-methyltransferase 5 (Homo sapiens, UniProt O14744)", "sequence (O14744 whole entry)": "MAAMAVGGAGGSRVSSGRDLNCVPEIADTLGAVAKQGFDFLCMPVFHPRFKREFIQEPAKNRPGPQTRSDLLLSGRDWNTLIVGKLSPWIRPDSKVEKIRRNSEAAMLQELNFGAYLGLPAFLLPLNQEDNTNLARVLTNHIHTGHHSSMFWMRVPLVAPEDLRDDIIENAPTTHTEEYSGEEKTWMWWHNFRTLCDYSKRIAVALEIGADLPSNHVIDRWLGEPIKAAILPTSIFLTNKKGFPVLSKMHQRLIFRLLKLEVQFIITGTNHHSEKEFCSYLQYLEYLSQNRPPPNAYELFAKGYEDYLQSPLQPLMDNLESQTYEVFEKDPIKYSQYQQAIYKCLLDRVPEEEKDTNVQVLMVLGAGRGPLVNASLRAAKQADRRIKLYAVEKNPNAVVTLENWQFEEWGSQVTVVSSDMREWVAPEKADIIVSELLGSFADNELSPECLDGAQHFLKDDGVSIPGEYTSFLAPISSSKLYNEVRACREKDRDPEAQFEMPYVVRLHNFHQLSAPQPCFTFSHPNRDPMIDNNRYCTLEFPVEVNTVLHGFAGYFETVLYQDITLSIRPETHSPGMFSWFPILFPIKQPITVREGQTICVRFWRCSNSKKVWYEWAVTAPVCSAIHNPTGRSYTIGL", "experiment": "Inhibition of PRMT5 (unknown origin) preincubated for 15 mins followed by substrate addition and measured after 60 mins by AlphaLisa assay"}, "[21]": {"target": "Protein arginine N-methyltransferase 3 (Homo sapiens, UniProt O60678)", "sequence (O60678 whole entry)": "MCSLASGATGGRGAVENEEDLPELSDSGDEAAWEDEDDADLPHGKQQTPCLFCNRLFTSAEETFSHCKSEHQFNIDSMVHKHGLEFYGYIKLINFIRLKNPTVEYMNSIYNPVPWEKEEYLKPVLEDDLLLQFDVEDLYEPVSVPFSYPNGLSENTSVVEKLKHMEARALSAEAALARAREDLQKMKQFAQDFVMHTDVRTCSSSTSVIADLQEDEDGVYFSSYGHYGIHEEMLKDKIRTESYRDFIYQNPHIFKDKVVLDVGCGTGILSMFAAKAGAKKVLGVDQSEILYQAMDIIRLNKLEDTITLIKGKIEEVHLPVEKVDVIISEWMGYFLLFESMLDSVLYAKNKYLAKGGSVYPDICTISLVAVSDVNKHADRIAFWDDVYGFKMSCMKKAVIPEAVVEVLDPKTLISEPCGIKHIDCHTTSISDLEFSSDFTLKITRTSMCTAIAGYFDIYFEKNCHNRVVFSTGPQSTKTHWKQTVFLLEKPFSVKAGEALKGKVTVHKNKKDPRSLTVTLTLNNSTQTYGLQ", "experiment": "Inhibition of PRMT3 (unknown origin) preincubated for 15 mins followed by substrate addition and measured after 60 mins by AlphaLisa assay"}, "Mus musculus": {"tested_on": "Mus musculus", "experiment": "In vivo inhibition of PRMT4 in nude BALB/c mouse xenografted with human MOLM13 cells assessed as reduction in asymmetric dimethyl arginine level at 100 mg/kg, po administered daily for 18 days measured 6 hrs post-last dose by Western blot analysis", "assay_type": "functional, organism-based"}, "[22]": {"target": "Protein arginine N-methyltransferase 8 (Homo sapiens, UniProt Q9NR22)", "sequence (Q9NR22 whole entry)": "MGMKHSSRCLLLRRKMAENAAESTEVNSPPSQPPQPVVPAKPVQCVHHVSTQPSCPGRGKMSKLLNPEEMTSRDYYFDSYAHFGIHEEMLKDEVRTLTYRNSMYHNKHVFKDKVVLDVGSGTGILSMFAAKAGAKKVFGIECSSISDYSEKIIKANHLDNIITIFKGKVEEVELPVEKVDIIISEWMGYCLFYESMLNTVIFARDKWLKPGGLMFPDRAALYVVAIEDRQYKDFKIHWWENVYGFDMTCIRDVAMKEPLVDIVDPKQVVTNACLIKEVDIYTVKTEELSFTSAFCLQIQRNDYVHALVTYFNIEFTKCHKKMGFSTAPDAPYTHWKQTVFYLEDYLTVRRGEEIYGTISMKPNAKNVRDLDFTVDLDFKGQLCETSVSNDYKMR", "experiment": "Inhibition of PRMT8 (unknown origin) preincubated for 15 mins followed by substrate addition and measured after 60 mins by AlphaLisa assay"}, "[23]": {"experiment": "AUC (0 to infinity) in ICR mouse at 3 mg/kg, iv by mass spectrometric analysis", "assay_type": "ADME, organism-based", "set-up": "dose 3 mg/kg, route intravenous, time infinity", "conditions": "in vivo"}, "MOLM-13 [24]": {"tested_on": "MOLM-13", "experiment": "Induction of apoptosis in human MOLM13 cells assessed as total apoptotic cells at 12 uM measured after 96 hrs by Annexin V-FITC/propidium iodide staining-based flow cytometry relative to control", "assay_type": "functional"}, "[25]": {"experiment": "Tmax in ICR mouse at 10 mg/kg, po administered via gavage by mass spectrometric analysis", "assay_type": "ADME, organism-based", "conditions": "in vivo"}, "[26]": {"experiment": "Clearance in ICR mouse at 3 mg/kg, iv by mass spectrometric analysis", "assay_type": "ADME, organism-based", "conditions": "in vivo"}}, "note": "pIC50: −log10 of the molar value. The source made the active and inactive calls. The calls are words filed in the database; no cut-off is given here."}
{"smiles": "CNC[C@@H](O)CN1CCc2c(cccc2OCc2ccc(-c3nccs3)cc2)C1", "values": [{"measurement": "Activity", "setting": "MV4-11", "result": "Dose-dependent effect"}, {"measurement": "half-life", "setting": "[1]", "result": 24.1, "unit": "h"}, {"measurement": "Ratio IC50", "setting": "[2]", "result": 10}, {"measurement": "Activity", "setting": "HEL", "result": "Dose-dependent effect"}, {"measurement": "Activity", "setting": "MOLM-13 [3]", "result": "Dose-dependent effect"}, {"measurement": "pIC50", "setting": "[4]", "result": 5.07}, {"measurement": "fraction unbound at 2 µM", "setting": "[5]", "result": 0.02}, {"measurement": "inhibition", "setting": "[6]", "result": "inactive"}, {"measurement": "inhibition", "setting": "[7]", "result": "inactive"}, {"measurement": "Cmax", "setting": "[8]", "result": 75.4, "unit": "ng/mL"}, {"measurement": "half-life", "setting": "[9]", "result": 12.1, "unit": "h"}, {"measurement": "AUC(0-t)", "setting": "[10]", "result": 1410, "unit": "ng·h/mL"}, {"measurement": "AUC(0-inf)", "setting": "[11]", "result": 3030, "unit": "ng·h/mL"}, {"measurement": "pIC50", "setting": "MOLM-13 [12]", "result": 5.16}, {"measurement": "Activity", "setting": "MONO-MAC-6", "result": "Dose-dependent effect"}, {"measurement": "pIC50", "setting": "[13]", "result": 6.43}, {"measurement": "Activity", "setting": "K562", "result": "Dose-dependent effect"}, {"measurement": "inhibition", "setting": "[14]", "result": "inactive"}, {"measurement": "inhibition", "setting": "[15]", "result": "inactive"}, {"measurement": "Ratio", "setting": "[16]", "result": "20 to 30"}, {"measurement": "concentration at 6 h", "setting": "[17]", "result": 80700, "unit": "ng/g"}, {"measurement": "inhibition in vivo at 100 mg/kg", "setting": "MOLM-13 [18]", "result": 53.5, "unit": "%"}, {"measurement": "pIC50", "setting": "[19]", "result": 7.68}, {"measurement": "pIC50", "setting": "[20]", "result": "< 4.52"}, {"measurement": "pIC50", "setting": "[21]", "result": "< 5.00"}, {"measurement": "inhibition", "setting": "Mus musculus", "result": "Active"}, {"measurement": "pIC50", "setting": "[22]", "result": 5.43}, {"measurement": "AUC(0-inf)", "setting": "[23]", "result": 1160, "unit": "ng·h/mL"}, {"measurement": "Activity", "setting": "MOLM-13 [24]", "result": 96.4, "unit": "%"}, {"measurement": "Tmax", "setting": "[25]", "result": 8, "unit": "h"}, {"measurement": "clearance", "setting": "[26]", "result": 44.9, "unit": "mL/min/kg"}]}
